In general, stoichiometry N refers to a count of units in the complex or per binding partner.

One data set deals with T1, AlbAB (Streptomyces noursei, UniProt Q8GED8+Q8GED9, Q8GED9:S77A).
T1 construct: gene albA; AlbA ca. 21 kDa, AlbB ca. 11 kDa; filament of alternating AlbA2 and AlbB2 dimers; FMN covalent at AlbA C115
Nature of the data set: coupled horseradish peroxidase H2O2 fluorescence assay, Michaelis-Menten fit. The data set is classed as biochemical. Conditions: 100 mM Tris pH 8.0, 30 °C, O2, 1 mM 4-hydroxyphenylacetic acid, 0.1 U HRP, 0.25 µM AlbAB.

Data set [1] concerns the molecule itself. Nature of the data set: SEC + other: dynamic light scattering; DLS at 25 °C, AlbAB 0.1 mg/mL and AlbB 1 mg/mL in 150 mM NaCl, 20 mM Tris pH 7.5; size exclusion chromatography.

T1 sequence (Q8GED9 24-219 S77A, one chain of several): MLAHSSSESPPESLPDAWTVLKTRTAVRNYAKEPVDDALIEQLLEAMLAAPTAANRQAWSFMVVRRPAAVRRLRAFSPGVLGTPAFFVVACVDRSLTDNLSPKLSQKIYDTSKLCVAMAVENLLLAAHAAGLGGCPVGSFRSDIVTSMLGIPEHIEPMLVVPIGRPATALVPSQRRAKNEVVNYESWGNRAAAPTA

Take `CC(C)C[C@@H]1NC(=O)[C@H](Cc2ccccc2)NC1=O` [cyclo(L-Phe-L-Leu)]: the KM entry at AlbAB is “velocities for AlbAB and AlbA-S54A/AlbB were then fit to a Michaelis-Menton non-linear regression model”.

B1: AlbB expressed alone (His tag removed) (natural protein, Streptomyces noursei)
chain: MNPGETVLPPQLREEIALLAVYLLSSGRGLLEEPADYGIYRCTDGARRALQLLDEHGGSTARLTAVRERLDEVMFAPMGEDRDMGAILDDLCRQMADALPEIETP
notes: AlbB, Streptomyces noursei; gene PCR-amplified from the AlbAB-encoding pGM1190 vector into pETDuet-1 multiple cloning site 2, with a TEV site to remove the tag; also called His-tagged AlbB; source: E. coli BL21 (DE3), pETDuet-1, purified (His-Trap, TEV cleavage, second His-Trap); not shown: His tag, N-terminal, cleaved
Consider B1, for which, in data set [1], the “stoichiometry N” value is 2.

(Values after publication PMC11055893, “Cyclodipeptide oxidase is an enzyme filament” (Nature Communications, 2024).)
